# Results from ChEMBL document CHEMBL1139989, “Aminosuberoyl hydroxamic acids (ASHAs): a potent new class of HDAC inhibitors” (Bioorg Med Chem Lett, 2007).
# Tested on: HCT-116
# Assay: Antitumor activity against human HCT116 cells
# Type: functional
row,SMILES,TGI
1,O=C(CCCCC[C@H](NC(=O)c1ccccc1)C(=O)Nc1cccc2cccnc12)NO,>=50%
2,O=C(CCCCC[C@H](NC(=O)c1ccccn1)C(=O)Nc1ccccc1)NO,>=50%

# Tested on: not listed separately
# Assay: Antiproliferative activity against mouse SC9 cells by MTS assay
# Type: functional, cell-based
row,SMILES,IC50
1,O=C(CCCCC[C@H](NC(=O)OCc1ccccc1)C(=O)Nc1cccc2cccnc12)NO,39 nM
2,O=C(CCCCC[C@H](NC(=O)c1ccc2ccccc2n1)C(=O)Nc1cccc2cccnc12)NO,165 nM
3,O=C(CCCCC[C@H](NC(=O)c1ccccc1)C(=O)Nc1ccc2ncccc2c1)NO,90 nM
4,O=C(CCCCC[C@H](NC(=O)OCc1ccccc1)C(=O)Nc1ccc2ncccc2c1)NO,110 nM
5,O=C(CCCCC[C@H](NC(=O)c1ccccc1)C(=O)NCc1ccccc1)NO,1040 nM
6,O=C(CCCCC[C@H](NC(=O)c1ccccn1)C(=O)NCc1ccccc1)NO,3420 nM
7,O=C(CCCCC[C@H](NC(=O)OCc1ccccc1)C(=O)Nc1ccccc1)NO,102 nM
8,O=C(CCCCC[C@H](NC(=O)c1ccccc1)C(=O)Nc1cccc2cccnc12)NO,43 nM
9,O=C(CCCCC[C@H](NC(=O)OCc1ccccc1)C(=O)NCc1ccccc1)NO,412 nM
10,O=C(CCCCC[C@H](NC(=O)c1ccccc1)C(=O)Nc1ccccc1)NO,73 nM
11,O=C(CCCCC[C@H](NC(=O)c1ccc2ccccc2n1)C(=O)Nc1ccccc1)NO,33 nM
12,O=C(CCCCC[C@H](NC(=O)c1ccccn1)C(=O)Nc1cccc2cccnc12)NO,367 nM
13,O=C(CCCCC[C@H](NC(=O)c1ccccn1)C(=O)Nc1ccc2ncccc2c1)NO,756 nM
14,O=C(CCCCC[C@H](NC(=O)c1ccc2ccccc2n1)C(=O)NCc1ccccc1)NO,374 nM
15,O=C(CCCCC[C@H](NC(=O)c1ccccn1)C(=O)Nc1ccccc1)NO,250 nM
16,O=C(CCCCC[C@H](NC(=O)c1ccc2ccccc2n1)C(=O)Nc1ccc2ncccc2c1)NO,107 nM

# Target: Histone deacetylase 1 (Homo sapiens, UniProt Q13547)
# Sequence (Q13547 whole entry): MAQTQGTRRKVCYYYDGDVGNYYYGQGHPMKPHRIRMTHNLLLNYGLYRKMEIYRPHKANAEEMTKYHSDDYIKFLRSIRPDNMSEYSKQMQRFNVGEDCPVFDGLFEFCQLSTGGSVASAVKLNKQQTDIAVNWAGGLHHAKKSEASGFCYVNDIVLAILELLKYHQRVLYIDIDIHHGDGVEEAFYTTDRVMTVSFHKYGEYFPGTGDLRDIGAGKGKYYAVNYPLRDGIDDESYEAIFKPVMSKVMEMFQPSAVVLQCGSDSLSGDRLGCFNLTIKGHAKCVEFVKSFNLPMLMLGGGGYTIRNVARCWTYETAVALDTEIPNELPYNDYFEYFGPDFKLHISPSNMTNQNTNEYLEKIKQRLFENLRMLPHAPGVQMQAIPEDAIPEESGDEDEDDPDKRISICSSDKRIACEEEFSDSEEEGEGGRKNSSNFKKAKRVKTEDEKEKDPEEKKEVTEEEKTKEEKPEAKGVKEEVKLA
# Assay: Inhibition of human HDAC 1
row,SMILES,IC50
1,O=C(CCCCC[C@H](NC(=O)OCc1ccccc1)C(=O)Nc1cccc2cccnc12)NO,14.5 nM
2,O=C(CCCCC[C@H](NC(=O)c1ccccc1)C(=O)Nc1ccc2ncccc2c1)NO,3.5 nM
3,O=C(CCCCC[C@H](NC(=O)OCc1ccccc1)C(=O)Nc1ccc2ncccc2c1)NO,7.7 nM
4,O=C(CCCCC[C@H](NC(=O)c1ccccc1)C(=O)NCc1ccccc1)NO,93 nM
5,O=C(CCCCC[C@H](NC(=O)c1ccccn1)C(=O)NCc1ccccc1)NO,120 nM
6,O=C(CCCCC[C@H](NC(=O)OCc1ccccc1)C(=O)Nc1ccccc1)NO,18 nM
7,O=C(CCCCC[C@H](NC(=O)c1ccccc1)C(=O)Nc1cccc2cccnc12)NO,9.4 nM
8,O=C(CCCCC[C@H](NC(=O)OCc1ccccc1)C(=O)NCc1ccccc1)NO,48 nM
9,O=C(CCCCC[C@H](NC(=O)c1ccccc1)C(=O)Nc1ccccc1)NO,12.1 nM
10,O=C(CCCCC[C@H](NC(=O)c1ccc2ccccc2n1)C(=O)Nc1ccccc1)NO,10 nM
11,O=C(CCCCC[C@H](NC(=O)c1ccccn1)C(=O)Nc1cccc2cccnc12)NO,4 nM
12,O=C(CCCCC[C@H](NC(=O)c1ccccn1)C(=O)Nc1ccc2ncccc2c1)NO,1.3 nM
13,O=C(CCCCC[C@H](NC(=O)c1ccc2ccccc2n1)C(=O)NCc1ccccc1)NO,51.3 nM
14,O=C(CCCCC[C@H](NC(=O)c1ccccn1)C(=O)Nc1ccccc1)NO,11.1 nM

# Species: Mus musculus
# Assay: Decrease in body weight in nude mouse
# Type: functional
# Set-up: scale not given: the % may be the effect or the level left
row,SMILES,Activity
1,O=C(CCCCC[C@H](NC(=O)c1ccccc1)C(=O)Nc1cccc2cccnc12)NO,<20%
2,O=C(CCCCC[C@H](NC(=O)c1ccccn1)C(=O)Nc1ccccc1)NO,<20%
